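Compound exposure: 48 hours, 5 concentrations, 96-well plates. GI50 marks 50% less growth.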 Calls of active or inactive are those of the source. No stated cut-off is given here; in the data, active = GI50 up to about 1.1 µM and inactive = higher.
Assays:
Test in all cases: growth of human tumour cells (NCI), 48 h
NCI/ADR-RES = test system: NCI/ADR-RES
SR = test system: SR
HT-29 = test system: HT-29
OVCAR-3 = test system: OVCAR-3
NCI-H226 = test system: NCI-H226
OVCAR-8 = test system: OVCAR-8
SW-620 = test system: SW-620
MDA-MB-435 = test system: MDA-MB-435
SK-MEL-2 = test system: SK-MEL-2
SF-268 = test system: SF-268
SK-MEL-5 = test system: SK-MEL-5
RPMI-8226 = test system: RPMI-8226
OVCAR-4 = test system: OVCAR-4
SF-295 = test system: SF-295
NCI-H23 = test system: NCI-H23
SK-OV-3 = test system: SK-OV-3
HCC 2998 = test system: HCC 2998
HOP-92 = test system: HOP-92
K562 = test system: K562
HCT-15 = test system: HCT-15
MDA-MB-231 = test system: MDA-MB-231
LOX IMVI = test system: LOX IMVI
KM12 = test system: KM12
786-0 = test system: 786-0
Hs-578T = test system: Hs-578T
SN12C = test system: SN12C
SNB-75 = test system: SNB-75
T47D = test system: T47D
SK-MEL-28 = test system: SK-MEL-28
Malme-3M = test system: Malme-3M
UACC-257 = test system: UACC-257
U-251 = test system: U-251
NCI-H460 = test system: NCI-H460
CAKI-1 = test system: CAKI-1
HCT-116 = test system: HCT-116
IGROV-1 = test system: IGROV-1
MOLT-4 = test system: MOLT-4
TK-10 = test system: TK-10
A498 = test system: A498
OVCAR-5 = test system: OVCAR-5
BT-549 = test system: BT-549
MCF7 = test system: MCF7
HOP-62 = test system: HOP-62
A549 = test system: A549
PC-3 = test system: PC-3
SF-539 = test system: SF-539
NCI-H522 = test system: NCI-H522
UACC-62 = test system: UACC-62
MDA-N = test system: MDA-N
M14 = test system: M14
EKVX = test system: EKVX
UO-31 = test system: UO-31
RXF 393 = test system: RXF 393
ACHN = test system: ACHN
HL-60 = test system: HL-60
DU-145 = test system: DU-145
SNB-19 = test system: SNB-19
COLO 205 = test system: COLO 205

COc1ccccc1NC(=O)C(=O)C(C#N)CC(C)(C)C=O (configuration not stated)
GI50 (NCI/ADR-RES): > 100 µM (inactive)
GI50 (SR): > 100 µM (inactive)
GI50 (HT-29): > 100 µM (inactive)
GI50 (OVCAR-3): > 100 µM (inactive)
GI50 (NCI-H226): > 100 µM (inactive)
GI50 (OVCAR-8): > 100 µM (inactive)
GI50 (SW-620): > 100 µM (inactive)
GI50 (MDA-MB-435): > 100 µM (inactive)
GI50 (SK-MEL-2): > 100 µM (inactive)
GI50 (SF-268): > 100 µM (inactive)
GI50 (SK-MEL-5): > 100 µM (inactive)
GI50 (RPMI-8226): > 100 µM (inactive)
GI50 (OVCAR-4): > 100 µM (inactive)
GI50 (SF-295): > 100 µM (inactive)
GI50 (NCI-H23): > 100 µM (inactive)
GI50 (SK-OV-3): > 100 µM (inactive)
GI50 (HCC 2998): > 100 µM (inactive)
GI50 (HOP-92): > 100 µM (inactive)
GI50 (K562): > 100 µM (inactive)
GI50 (HCT-15): > 100 µM
GI50 (MDA-MB-231): > 100 µM (inactive)
GI50 (LOX IMVI): > 100 µM (inactive)
GI50 (KM12): > 100 µM (inactive)
GI50 (786-0): > 100 µM (inactive)
GI50 (Hs-578T): > 100 µM (inactive)
GI50 (SN12C): > 100 µM (inactive)
GI50 (SNB-75): > 100 µM (inactive)
GI50 (T47D): > 100 µM (inactive)
GI50 (SK-MEL-28): > 100 µM (inactive)
GI50 (Malme-3M): > 100 µM (inactive)
GI50 (UACC-257): > 100 µM (inactive)
GI50 (U-251): > 100 µM (inactive)
GI50 (NCI-H460): > 100 µM (inactive)
GI50 (CAKI-1): > 100 µM (inactive)
GI50 (HCT-116): > 100 µM (inactive)
GI50 (IGROV-1): > 100 µM (inactive)
GI50 (MOLT-4): > 100 µM (inactive)
GI50 (TK-10): > 100 µM (inactive)
GI50 (A498): > 100 µM (inactive)
GI50 (OVCAR-5): > 100 µM (inactive)
GI50 (BT-549): > 100 µM (inactive)
GI50 (MCF7): > 100 µM (inactive)
GI50 (HOP-62): > 100 µM (inactive)
GI50 (A549): > 100 µM (inactive)
GI50 (PC-3): > 100 µM (inactive)
GI50 (SF-539): > 100 µM (inactive)
GI50 (NCI-H522): > 100 µM (inactive)
GI50 (UACC-62): > 100 µM (inactive)
GI50 (MDA-N): > 100 µM (inactive)
GI50 (M14): > 100 µM (inactive)
GI50 (EKVX): > 100 µM (inactive)
GI50 (UO-31): > 100 µM (inactive)
GI50 (RXF 393): > 100 µM (inactive)
GI50 (ACHN): > 100 µM (inactive)
GI50 (HL-60): > 100 µM (inactive)

Cn1c(=O)c2c(nc3n2CC(C(=O)O)N3)n(C)c1=O (configuration not stated)
GI50 (DU-145): > 100 µM (inactive)
GI50 (NCI/ADR-RES): > 100 µM (inactive)
GI50 (HT-29): > 100 µM (inactive)
GI50 (OVCAR-3): > 100 µM (inactive)
GI50 (NCI-H226): > 100 µM (inactive)
GI50 (OVCAR-8): > 100 µM (inactive)
GI50 (SNB-19): > 100 µM (inactive)
GI50 (SW-620): > 100 µM (inactive)
GI50 (MDA-MB-435): > 100 µM (inactive)
GI50 (SK-MEL-2): > 100 µM (inactive)
GI50 (SF-268): > 100 µM (inactive)
GI50 (SK-MEL-5): > 100 µM (inactive)
GI50 (RPMI-8226): > 100 µM (inactive)
GI50 (OVCAR-4): > 100 µM (inactive)
GI50 (SF-295): > 100 µM (inactive)
GI50 (NCI-H23): > 100 µM (inactive)
GI50 (SK-OV-3): > 100 µM (inactive)
GI50 (HCC 2998): > 100 µM (inactive)
GI50 (HOP-92): > 100 µM (inactive)
GI50 (K562): 9.1 µM (inactive)
GI50 (HCT-15): > 100 µM
GI50 (MDA-MB-231): > 100 µM (inactive)
GI50 (LOX IMVI): > 100 µM (inactive)
GI50 (KM12): > 100 µM (inactive)
GI50 (786-0): > 100 µM (inactive)
GI50 (Hs-578T): > 100 µM (inactive)
GI50 (COLO 205): > 100 µM (inactive)
GI50 (SN12C): > 100 µM (inactive)
GI50 (SNB-75): > 100 µM (inactive)
GI50 (T47D): > 100 µM (inactive)
GI50 (SK-MEL-28): > 100 µM (inactive)
GI50 (Malme-3M): > 100 µM (inactive)
GI50 (UACC-257): > 100 µM (inactive)
GI50 (U-251): > 100 µM (inactive)
GI50 (NCI-H460): > 100 µM (inactive)
GI50 (CAKI-1): > 100 µM (inactive)
GI50 (HCT-116): > 100 µM (inactive)
GI50 (IGROV-1): > 100 µM (inactive)
GI50 (MOLT-4): 0.036 µM (active)
GI50 (TK-10): > 100 µM (inactive)
GI50 (A498): > 100 µM (inactive)
GI50 (OVCAR-5): > 100 µM (inactive)
GI50 (BT-549): > 100 µM (inactive)
GI50 (MCF7): > 100 µM (inactive)
GI50 (HOP-62): > 100 µM (inactive)
GI50 (A549): > 100 µM (inactive)
GI50 (PC-3): > 100 µM (inactive)
GI50 (SF-539): > 100 µM (inactive)
GI50 (NCI-H522): > 100 µM (inactive)
GI50 (UACC-62): > 100 µM (inactive)
GI50 (MDA-N): > 100 µM (inactive)
GI50 (M14): > 100 µM (inactive)
GI50 (EKVX): > 100 µM (inactive)
GI50 (UO-31): > 100 µM (inactive)
GI50 (RXF 393): > 100 µM (inactive)
GI50 (ACHN): > 100 µM (inactive)
GI50 (HL-60): > 100 µM (inactive)
